Experimental data from patent publication US5675003A, “3-ammoniopropenyl cephalosporin compounds as antibacterial agents” (Korea Institute of Science and Technology, priority 1995, dated 1997).
Converted amounts (≈) assume the structure as drawn.

Tests used:
anti-pseudomonal = details: in words, prior art; cited from earlier work
staphylococci = details: in words, prior art; cited from earlier work
[1] = system: Pseudomonas eruginosa 1771; assay: MIC, in vitro agar dilution method; type: cell-based; details: P.a.3, Pseudomonas eruginosa 1771
Procedure: (§1) The MICs of the new cephalosporins of the present invention against Gram-positive and Gram-negative bacteria were determined by an in vitro agar dilution method. For comparisons, the MIC values of ceftazidime are also listed.
(§2) In vitro antimicrobial activity of the cephalosporins (l) (MIC:
P.a.3, Pseudomonas eruginosa 1771;

[2] = system: Streptococcus pyogenes A 77; assay: MIC, in vitro agar dilution method; type: cell-based; details: Streptococcus pyogenes, A77
Procedure: as §1, §2
S.p.2, Streptococcus pyogenes A 77;

[3] = system: Enterobacter cloacae P 99; assay: MIC, in vitro agar dilution method; type: cell-based
Procedure: as §1, §2
En.c.1, Enterobacter cloacae P 99;

E.c.5 = assay: MIC, in vitro agar dilution method; type: cell-based; details: Escherichia coli, E.c.5 (strain not defined)
Procedure: as §1

[4] = system: Staphylococcus aureus 503; assay: MIC, in vitro agar dilution method; type: cell-based; details: Staphylococcus aureus, 503
Procedure: as §1, §2
S.a.3, Staphylococcus aureus 503;

Escherichia coli DC0 = assay: MIC, in vitro agar dilution method; type: cell-based; details: E.c.2, Escherichia coli DC0
Procedure: as §1, §2
E.c.2, Escherichia coli DC0;

[5] = system: Klebsiella oxytoca 1082 E; assay: MIC, in vitro agar dilution method; type: cell-based; details: Klebsiella oxytoca, 1082E
Procedure: as §1, §2
K.o., Klebsiella oxytoca 1082 E;

Streptococcus faecium MD = assay: MIC, in vitro agar dilution method; type: cell-based; details: Enterococcus faecium
Procedure: as §1, §2
S.f., Streptococcus faecium MD;

[6] = system: Pseudomonas aeruginosa 1592 E; assay: MIC, in vitro agar dilution method; type: cell-based; details: Pseudomonas aeruginosa, 1592E
Procedure: as §1, §2
P.a.2, Pseudomonas aeruginosa 1592 E;

[7] = system: Staphlococcus aureus SG 511; assay: MIC, in vitro agar dilution method; type: cell-based
Procedure: as §1, §2
S.a.1, Staphlococcus aureus SG 511;

[8] = system: Klebsiella aerogenes 1552 E; assay: MIC, in vitro agar dilution method; type: cell-based; details: Klebsiella aerogenes, 1552E
Procedure: as §1, §2
K.a., Klebsiella aerogenes 1552 E;

Salmonella typhimurium = assay: MIC, in vitro agar dilution method; type: cell-based; details: Salmonella enterica, TYPHIMURIUM
Procedure: as §1, §2
S.t., Salmonella typhimurium;

[9] = system: Enterobacter cloacae 1321 E; assay: MIC, in vitro agar dilution method; type: cell-based; details: Enterobacter cloacae, 1321E
Procedure: as §1, §2
En.c.2, Enterobacter cloacae 1321 E.

[10] = system: Staphylococcus aureus 285; assay: MIC, in vitro agar dilution method; type: cell-based; details: Staphylococcus aureus, 285
Procedure: as §1, §2
E.c. TEM, S.a. 2, Staphylococcus aureus 285;

[11] = system: Streptococcus pyogenes 308 A; assay: MIC, in vitro agar dilution method; type: cell-based; details: Streptococcus pyogenes, 308A
Procedure: as §1, §2
S.p.1, Streptococcus pyogenes 308 A;

Escherichia coli O55 = assay: MIC, in vitro agar dilution method; type: cell-based; details: E.c.1, Escherichia coli O55
Procedure: as §1, §2
E.c.1, Escherichia coli O55;

Enterobacter cloacae P99 = details: in words, prior art; cited from earlier work
[12] = system: Pseudomonas aeruginosa 1771 M; assay: MIC, in vitro agar dilution method; type: cell-based; details: Pseudomonas aeruginosa, 1771M
Procedure: as §1, §2
P.a.4, Pseudomonas aeruginosa 1771 M;

Escherichia coli 1507 E = assay: MIC, in vitro agar dilution method; type: cell-based; details: E.c.4, Escherichia coli 1507 E
Procedure: as §1, §2
E.c.4, Escherichia coli 1507 E;

[13] = system: Pseudomonas aeruginosa 9027; assay: MIC, in vitro agar dilution method; type: cell-based; details: Pseudomonas aeruginosa, 9027
Procedure: as §1, §2
P.a.1, Pseudomonas aeruginosa 9027;

Escherichia coli TEM = assay: MIC, in vitro agar dilution method; type: cell-based; details: E.c.3, Escherichia coli TEM
Procedure: as §1, §2
E.c.3, Escherichia coli TEM;

For `CO/N=C(\C(=O)N[C@@H]1C(=O)N2C(C(=O)[O-])=C(C[N+]3(C)CCCC3)CS[C@H]12)c1csc(N)n1` [Cefepime, cefepime], the anti-pseudomonal activity (anti-pseudomonal) is given as “high anti-pseudomonal activity” and the activity against staphylococci (staphylococci) is given as “improved anti-staphylococcaI activity”.

`CC(C)(O/N=C(\C(=O)N[C@@H]1C(=O)N2C(C(=O)[O-])=C(C[n+]3ccccc3)CS[C@H]12)c1csc(N)n1)C(=O)O` [Ceftazidime, ceftazidime, reference compound] showed an MIC [1] of 0.39 µg/mL (≈ 0.714 µM), an MIC [2] of 0.049 µg/mL (≈ 0.0896 µM) and an MIC ([3]; Enterobacter cloacae, P99) of 100 µg/mL (≈ 183 µM). The “activity against Enterobacter cloacae P99” value ([3]; in words) was “resistant to ceftazidime”, the MIC (E.c.5) was 0.2 µg/mL (≈ 0.366 µM) and the MIC [4] was 3.13 µg/mL (≈ 5.73 µM). It also gave an MIC (Escherichia coli DC0) of 0.098 µg/mL (≈ 0.179 µM), an MIC [5] of 0.39 µg/mL (≈ 0.714 µM) and an MIC (Streptococcus faecium MD) of 100 µg/mL (≈ 183 µM). The MIC [6] was 0.78 µg/mL (≈ 1.43 µM), the MIC [7] was 12.5 µg/mL (≈ 22.9 µM) and the MIC [8] was 0.098 µg/mL (≈ 0.179 µM). For the same molecule, the anti-pseudomonal activity (anti-pseudomonal) was “potent anti-pseudomonal activity”, the MIC (Salmonella typhimurium) was 0.2 µg/mL (≈ 0.366 µM) and the MIC [9] was 0.025 µg/mL (≈ 0.0457 µM). For the same molecule, the MIC [10] was 12.5 µg/mL (≈ 22.9 µM), the MIC [11] was 0.098 µg/mL (≈ 0.179 µM) and the MIC (Escherichia coli O55) was 0.098 µg/mL (≈ 0.179 µM). For the same molecule, the activity against staphylococci (staphylococci) was “less active against staphylococci”, the “activity against Enterobacter cloacae P99” value (Enterobacter cloacae P99) was “less active against staphylococci and Enterobacter cloacae P99” and the MIC [12] was 0.098 µg/mL (≈ 0.179 µM). For the same molecule, the MIC (Escherichia coli 1507 E) was 0.2 µg/mL (≈ 0.366 µM), the MIC [13] was 3.13 µg/mL (≈ 5.73 µM) and the MIC (Escherichia coli TEM) was 0.098 µg/mL (≈ 0.179 µM).
